According to ChEMBL document CHEMBL1143903, “Synthesis of novel spiropyrrolizidines as potent antimicrobial agents for human and plant pathogens” (2008):
In brackets after ≈: the same amount, converted by molar mass.

Assays:
Proteus mirabilis = assay: Antibacterial activity against Proteus mirabilis by well diffusion method; type: functional
Proteus vulgaris = assay: Antibacterial activity against Proteus vulgaris by well diffusion method; type: functional
Salmonella typhi = assay: Antibacterial activity against Salmonella typhi by well diffusion method; type: functional, Salmonella enterica subsp. enterica serovar Typhi; conditions: Salmonella enterica
Fusarium oxysporum = assay: Antifungal activity against Fusarium oxysporum by poison food technique; type: functional
Staphylococcus aureus = assay: Antibacterial activity against Staphylococcus aureus by well diffusion method; type: functional
Macrophomina phaseolina = assay: Antifungal activity against Macrophomina phaseolina by poison food technique; type: functional

SMILES	MIC (Proteus mirabilis) [µg/mL]	MIC (Proteus vulgaris) [µg/mL]	MIC (Salmonella typhi) [µg/mL]	MIC (Fusarium oxysporum) [µg/mL]	MIC (Staphylococcus aureus) [µg/mL]	MIC (Macrophomina phaseolina) [µg/mL]
COc1ccc([C@H]2C3CCCN3[C@@]3(C(=O)Nc4ccccc43)[C@]23CCC2c4ccccc4NC2C3=O)cc1 (some centres not stated)	25 (≈ 49.4 µM)	15 (≈ 29.7 µM)	45 (≈ 89 µM)	75 (≈ 148 µM)	40 (≈ 79.1 µM)	25 (≈ 49.4 µM)
O=C1C2Nc3ccccc3C2CC[C@@]12[C@@H](c1ccc([N+](=O)[O-])cc1)C1CCCN1[C@@]21C(=O)Nc2ccccc21 (some centres not stated)	55 (≈ 106 µM)	35 (≈ 67.2 µM)	40 (≈ 76.8 µM)	75 (≈ 144 µM)	25 (≈ 48 µM)	100 (≈ 192 µM)
O=C1C2Nc3ccccc3C2CC[C@@]12[C@@H](c1ccc(Br)cc1)C1CCCN1[C@@]21C(=O)Nc2ccccc21 (some centres not stated)	30 (≈ 54.1 µM)	25 (≈ 45.1 µM)	30 (≈ 54.1 µM)	50 (≈ 90.2 µM)	45 (≈ 81.2 µM)	25 (≈ 45.1 µM)
O=C1C2Nc3ccccc3C2CC[C@@]12[C@@H](c1ccc(Cl)cc1)C1CCCN1[C@@]21C(=O)Nc2ccccc21 (some centres not stated)	35 (≈ 68.6 µM)	10 (≈ 19.6 µM)	30 (≈ 58.8 µM)	125 (≈ 245 µM)	20 (≈ 39.2 µM)	75 (≈ 147 µM)
Cc1ccc([C@H]2C3CCCN3[C@@]3(C(=O)Nc4ccccc43)[C@]23CCC2c4ccccc4NC2C3=O)cc1 (some centres not stated)	65 (≈ 133 µM)	40 (≈ 81.7 µM)	35 (≈ 71.5 µM)	75 (≈ 153 µM)	45 (≈ 91.9 µM)	50 (≈ 102 µM)
O=C1C2Nc3ccccc3C2CC[C@@]12[C@@H](c1ccccc1)C1CCCN1[C@@]21C(=O)Nc2ccccc21 (some centres not stated)	55 (≈ 116 µM)	30 (≈ 63.1 µM)	20 (≈ 42.1 µM)	125 (≈ 263 µM)	–	50 (≈ 105 µM)
CN(C)c1ccc([C@H]2C3CCCN3[C@@]3(C(=O)Nc4ccccc43)[C@]23CCC2c4ccccc4NC2C3=O)cc1 (some centres not stated)	50 (≈ 96.4 µM)	45 (≈ 86.8 µM)	35 (≈ 67.5 µM)	150 (≈ 289 µM)	35 (≈ 67.5 µM)	75 (≈ 145 µM)
COC(=O)Nc1nc2ccccc2[nH]1 [CARBENDAZIM]	–	–	–	18 (≈ 94.1 µM)	–	15 (≈ 78.5 µM)
CN(C)[C@@H]1C(O)=C(C(N)=O)C(=O)[C@@]2(O)C(O)=C3C(=O)c4c(O)cccc4[C@@](C)(O)[C@H]3C[C@@H]12 [TETRACYCLINE]	20 (≈ 45 µM)	15 (≈ 33.8 µM)	15 (≈ 33.8 µM)	–	10 (≈ 22.5 µM)	–
